Data on five compounds can be found in PMC9515472, “The AhR ligand phthiocol and vitamin K analogs as Pseudomonas aeruginosa quorum sensing inhibitors” (Frontiers in Microbiology, 2022).

SMILES strings stand for the structures. Where two headings read alike, the source gives them in different places.

In one data set the test system is P. aeruginosa PAO1. Format: cell-based, Pseudomonas aeruginosa.
Data set [1] has as its target T1, human recombinant AhR protein (Homo sapiens, UniProt P35869).
T1 sequence (P35869 128-399): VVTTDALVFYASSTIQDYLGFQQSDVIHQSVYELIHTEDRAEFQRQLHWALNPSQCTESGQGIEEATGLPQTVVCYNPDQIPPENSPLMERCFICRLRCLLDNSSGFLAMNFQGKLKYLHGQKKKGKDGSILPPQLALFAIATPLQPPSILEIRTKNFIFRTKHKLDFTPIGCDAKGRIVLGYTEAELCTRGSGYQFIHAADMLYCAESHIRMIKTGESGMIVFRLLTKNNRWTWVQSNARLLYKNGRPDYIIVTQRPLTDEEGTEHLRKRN
Briefly: Microscale thermophoresis (MST) binding to AhR protein. Background: MST reads how a fluorescent partner responds to local heating, with and without ligand.

Data set [2] deals with P. aeruginosa pqs QS system (pqsA-gfp). The class given is cell-based, Pseudomonas aeruginosa.
In another data set the test system is CYP1B1. Briefly: qRT-PCR of AhR downstream gene CYP1B1 in THP-1 cells. The settings on record: for CYP1B1 expression change in THP-1 AhR KD cells: THP-1 AhR-Knockdown (KD) cells. For orientation: Quantitative PCR measures a nucleic acid by following its amplification.
The subject of the next data set is AHRR. Briefly: qRT-PCR of AhR downstream gene AHRR in THP-1 cells. The class given is cell-based, human. The settings on record: for AHRR expression change in THP-1 AhR KD cells: THP-1 AhR-Knockdown (KD) cells; for AHRR transcription promoted: vs DMSO, increase.
The test system of the next data set is P.aeruginosa. More on the design: method as in Shinde and Wadekar, 2018. Conditions: due to metal ion chelating capacity; ref Shinde and Wadekar, 2018; cited from earlier work.
Data set [3] relates to P. aeruginosa pqs QS system (pqsA-gfp). Format: cell-based, Pseudomonas aeruginosa. The source holds these as a separate data set.
Data set [4] deals with P. aeruginosa rhamnolipid productions. The class given is cell-based, Pseudomonas aeruginosa. The settings on record: Supplementary Figure 1.
For data set [5], the system named is P. aeruginosa PAO1 pyocyanin production. Briefly: Pyocyanin quantification assay. Format: cell-based, Pseudomonas aeruginosa.
Data set [6] has as its system P. aeruginosa PAO1 proteome. The class given is cell-based, Pseudomonas aeruginosa. The settings on record: Bac_Pht vs Bac.
The target of data set [7] is PqsR binding to the pqsA promoter (Pseudomonas aeruginosa, UniProt Q9I4X0). Briefly: Electrophoretic mobility shift assay (EMSA) with biotinylated pqsA promoter and cell lysates. Format: biochemical. Conditions: PAO1 WT cell lysates. For orientation: Mobility shift assays separate free from complexed probe on a gel.
Sequence of PqsR binding to the pqsA promoter (Q9I4X0 whole entry): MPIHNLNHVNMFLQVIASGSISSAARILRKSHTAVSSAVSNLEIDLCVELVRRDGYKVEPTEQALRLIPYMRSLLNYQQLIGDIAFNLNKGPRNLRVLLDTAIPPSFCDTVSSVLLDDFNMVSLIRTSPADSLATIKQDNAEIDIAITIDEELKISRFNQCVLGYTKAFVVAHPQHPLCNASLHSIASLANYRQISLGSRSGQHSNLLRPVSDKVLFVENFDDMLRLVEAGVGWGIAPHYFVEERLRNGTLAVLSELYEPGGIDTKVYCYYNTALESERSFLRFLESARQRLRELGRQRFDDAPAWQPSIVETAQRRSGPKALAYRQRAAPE
The test system of data set [8] is P. aeruginosa PAO1 biofilm formation. Briefly: Biofilm formation assay (crystal violet staining). Format: cell-based, Pseudomonas aeruginosa.
The mark [9] stands for this setting: 10 μM, THP-1 human monocytes, 24 h, vs DMSO alone, repression.
Setting [10] is: 10 μM, THP-1 human monocytes, 24 h.

As a reminder, the Kd is the free concentration of one partner at which half of the binding sites on the other are occupied at equilibrium, for simple one-to-one binding.

Regarding `CCCCCCCc1[nH]c2ccccc2c(=O)c1O` [PQS, 2-heptyl-3-hydroxy-4 (1H)-quinolone], the “effect on growth of P. aeruginosa” value in the data set on P. aeruginosa PAO1 is “could not affect the growth”. Further, in data set [1], the Kd was 3.75 µM. In data set [2], the “induction of pqsA-gfp expression” value is reported as “induced the pqsA-gfp expression in a dose-dependent manner”. The CYP1B1 transcription repressed in the data set on CYP1B1 (setting [9]) was determined as 2.3 fold. In addition, the “CYP1B1 expression change in THP-1 AhR KD cells” value in the data set on CYP1B1 is reported as “no significant expression changes”. In addition, in the data set with AHRR (setting [9]), the AHRR transcription repressed was determined as 2.5 fold. In the data set on AHRR, the “AHRR expression change in THP-1 AhR KD cells” value is reported as “no significant expression changes”.

Turning to `CC1=C(O)C(=O)c2ccccc2C1=O` [Pht, 2-hydroxy-3-methyl-1,4-naphthoquinone], in the data set on P.aeruginosa, the anti-P.aeruginosa activity entry was “moderate”. The “effect on growth of P. aeruginosa” value in the data set with P. aeruginosa PAO1 is “could not affect the growth”. In addition, the “inhibition of pqsA-gfp expression” value in [3] was “inhibit pqsA-gfp expression in a dose-dependent manner”. Besides, in data set [3] (PAO1 PpqsA-gfp strain), the “optimal concentration for inhibition of pqsA-gfp expression” value was determined as 750 nM. For the same compound, the dissociation constant Kd in data set [1] turned out to be 0.474 µM. Further, in [4], the rhamnolipid production result is “did not inhibit”. For the same compound, the “induction of pqsA-gfp expression” value in data set [2] was “not”. Moreover, the pyocyanin production result in [5] is “suppressed by Pht to a level comparable to that of PAO1 ΔlasIΔrhlI strain and the ΔpqsC strain”. The compound further returned a CYP1B1 transcription promoted in the data set with CYP1B1 (10 μM, THP-1 human monocytes, 24 h, vs DMSO, increase) of 2.2 fold. The “FC(group2_group1)” value in data set [6] (PA1768, Zn_protease domain-containing protein, pValue 0.168581, Sig 0) came to 0.5758; in [6] (PA4677, Dipeptidase, pValue 0.361511, Sig 0), 0.5653; in [6] (PA5194, acidPPc domain-containing protein, pValue 0.333715, Sig 0), 0.5551; in [6] (PA5195, Heat shock protein 15, pValue 0.131054, Sig 0), 0.3354; in data set [6] (PA5437, Probable transcriptional regulator, pValue 0.358265, Sig 0), 0.4217. In the data set with AHRR (setting [10]), the AHRR transcription promoted came to 1.9 fold. Further, the “effect on binding of PqsR (PAO1 cell lysates) to Bio-pqsA promoter” value in data set [7] was “attenuated the interaction between PAO1 cell lysates and Bio-pqsA”. In addition, the biofilm formation entry in data set [8] is “suppressed by Pht to a level comparable to that of the PAO1 ΔlasIΔrhlI and the ΔpqsC strains”.

Consider `CC1=C(C/C=C(\C)CCC[C@H](C)CCC[C@H](C)CCCC(C)C)C(=O)c2ccccc2C1=O` [Vitamin K1, Phylloquinone], for which the “effect on growth of P. aeruginosa” value in the data set with P. aeruginosa PAO1 was “without affecting growth”. For the same compound, in data set [3], the “inhibition of pqsA-gfp expression” value is listed as “inhibit pqsA-gfp expression dose-dependently”. Further, in [1], the Kd turned out to be 1.99 µM. Also, the “CYP1B1 expression change in THP-1 AhR KD cells” value in the data set on CYP1B1 is listed as “no change”. The compound also yielded an AHRR transcription promoted in the data set on AHRR (setting [10]) of 1.6 fold. The “AHRR expression change in THP-1 AhR KD cells” value in the data set on AHRR is reported as “no change”.

In the case of `CC(C)=CCC/C(C)=C/CC/C(C)=C/CC/C(C)=C/CC1=C(C)C(=O)c2ccccc2C1=O` [Vitamin K2, Menaquinones], the “effect on growth of P. aeruginosa” value in the data set on P. aeruginosa PAO1 is listed as “without affecting growth”. In addition, the “inhibition of pqsA-gfp expression” value in data set [3] is given as “inhibit pqsA-gfp expression dose-dependently”. Moreover, the Kd in [1] came out at 0.586 µM.

Turning to `CC1=CC(=O)c2ccccc2C1=O` [Vitamin K3, Menadione], the “effect on growth of P. aeruginosa” value with P. aeruginosa PAO1 was “without affecting growth”. Besides, the “inhibition of pqsA-gfp expression” value in data set [3] was “inhibit pqsA-gfp expression dose-dependently”. Besides, in data set [1], the Kd is 2.17 µM.
